Assays:
[1] = Stability of the compound in stimulated […] fluid at pH 1.2 measured after 12 hrs; type: ADME; settings: simulated gi fluid, pH 1.2, 12 h
[2] = Stability of the compound in stimulated […] fluid at pH 6.8 measured after 12 hrs; type: ADME; settings: simulated intestinal fluid, read-out: Stability
RPMI-8226 = experiment: Cytotoxicity against human RPMI-8226 cells assessed as inhibition of cell proliferation incubated for 72 hrs by Cell Titer-Glo luminescence assay; type: functional, cell-based; settings: RPMI-8226, 72 h
[3] = Stability of the compound in stimulated […] fluid at pH 6.8 measured after 2 hrs; type: ADME; settings: simulated intestinal fluid, read-out: Stability
[4] = Stability of the compound in stimulated […] fluid at pH 1.2 measured after 2 hrs; type: ADME; settings: simulated gi fluid, pH 1.2, 2 h
[5] = Stability of the compound in stimulated […] fluid at pH 6.8 measured after 8 hrs; type: ADME; settings: simulated intestinal fluid, read-out: Stability
20S proteasome = experiment: Inhibition of human 20S proteasome chymotrypsin-like activity using Suc-Leu-Leu-Val-Tyr-AMC as fluorogenic peptide pre-incubated for 10 mins with compound followed by substrate addition for 60 mins by spectrofluorimetric analysis; type: protein-complex assay
[6] = Stability of the compound in stimulated […] fluid at pH 1.2 measured after 8 hrs; type: ADME; settings: simulated gi fluid, pH 1.2, 8 h
[7] = Stability of the compound in stimulated […] fluid at pH 6.8 measured after 1 min; type: ADME; settings: simulated intestinal fluid, read-out: Stability
[8] = Stability of the compound in stimulated […] fluid at pH 6.8 measured after 4 hrs; type: ADME; settings: simulated intestinal fluid, read-out: Stability
[9] = Stability of the compound in stimulated […] fluid at pH 1.2 measured after 1 min; type: ADME; settings: simulated gi fluid, pH 1.2, 1 min
[10] = Stability of the compound in stimulated […] fluid at pH 1.2 measured after 4 hrs; type: ADME; settings: simulated gi fluid, pH 1.2, 4 h
[11] = Half life in mouse liver microsomes at 1 uM incubated for 2 to 60 mins in presence of NADPH by LC-MS/MS analysis; type: ADME, Microsome; settings: time 2-60 min
[12] = Oral bioavailability in Sprague-Dawley rat at 1.2 mg/kg measured upto 24 hrs by LC-MS/MS analysis; type: ADME, organism-based; settings: in vivo
[13] = Intrinsic clearance in monkey liver microsomes at 1 uM incubated for 2 to 60 mins in presence of NADPH by LC-MS/MS analysis; type: ADME, Macaca mulatta, Microsome; settings: rhesus monkey, time 2-60 min, read-out: CLH
[14] = AUC (0-t) in Sprague-Dawley rat at 0.4 mg/kg,iv measured upto 24 hrs by LC-MS/MS analysis; type: ADME, organism-based; set-up: time < 24 hrs, dose 0.4 mg/kg, route iv; settings: in vivo
[15] = Half life in Sprague-Dawley rat at 0.4 mg/kg,iv measured upto 24 hrs by LC-MS/MS analysis; type: ADME, organism-based; settings: in vivo
[16] = Half life in monkey liver microsomes at 1 uM incubated for 2 to 60 mins in presence of NADPH by LC-MS/MS analysis; type: ADME, Macaca mulatta, Microsome; settings: rhesus monkey, time 2-60 min
[17] = Cmax in Sprague-Dawley rat at 1.2 mg/kg,IG measured upto 24 hrs by LC-MS/MS analysis; type: ADME, organism-based; set-up: time < 24 hrs, dose 1.2 mg/kg, route ig; settings: in vivo, po
[18] = Half life in human liver microsomes at 1 uM incubated for 2 to 60 mins in presence of NADPH by LC-MS/MS analysis; type: ADME, Microsome; settings: time 2-60 min
[19] = Half life in Sprague-Dawley rat at 1.2 mg/kg,IG measured upto 24 hrs by LC-MS/MS analysis; type: ADME, organism-based; settings: in vivo, po
[20] = Intrinsic clearance in rat liver microsomes at 1 uM incubated for 2 to 60 mins in presence of NADPH by LC-MS/MS analysis; type: ADME, Microsome; settings: time 2-60 min, read-out: CLH
[21] = Half life in dog liver microsomes at 1 uM incubated for 2 to 60 mins in presence of NADPH by LC-MS/MS analysis; type: ADME, Canis lupus familiaris, Microsome; settings: time 2-60 min
[22] = Intrinsic clearance in dog liver microsomes at 1 uM incubated for 2 to 60 mins in presence of NADPH by LC-MS/MS analysis; type: ADME, Canis lupus familiaris, Microsome; settings: time 2-60 min, read-out: CLH
[23] = Tmax in Sprague-Dawley rat at 1.2 mg/kg,IG measured upto 24 hrs by LC-MS/MS analysis; type: ADME, organism-based; settings: in vivo, po
[24] = Half life in rat liver microsomes at 1 uM incubated for 2 to 60 mins in presence of NADPH by LC-MS/MS analysis; type: ADME, Microsome; settings: time 2-60 min
[25] = Intrinsic clearance in human liver microsomes at 1 uM incubated for 2 to 60 mins in presence of NADPH by LC-MS/MS analysis; type: ADME, Microsome; settings: time 2-60 min, read-out: CLH
[26] = AUC(0-t) in Sprague-Dawley rat at 1.2 mg/kg,IG measured upto 24 hrs by LC-MS/MS analysis; type: ADME, organism-based; set-up: dose 1.2 mg/kg, time < 24 hrs, route ig; settings: in vivo, po
[27] = Intrinsic clearance in mouse liver microsomes at 1 uM incubated for 2 to 60 mins in presence of NADPH by LC-MS/MS analysis; type: ADME, Microsome; settings: time 2-60 min, read-out: CLH

Compound | Stability [1] [%] | remaining at 12 h [2] [%] | IC50 (RPMI-8226) [nM] | remaining at 2 h [3] [%] | Stability [4] [%] | remaining at 8 h [5] [%] | IC50 (20S proteasome) [nM] | Stability [6] [%] | remaining at 1 min [7] [%] | remaining at 4 h [8] [%] | Stability [9] [%] | Stability [10] [%] | further results
CC(C)C[C@H](NC(=O)CNC(=O)c1cc(Cl)ccc1Cl)B1OC2C3OC(C4C(=O)NC(=O)C34)C2(C)O1 (some centres not stated) | 66.9 | 10.8 | 6.8 | 11.4 | 67.8 | 13.5 | 22.4 | 66.14 | 15 | 11.4 | 70.91 | 70.5 | 
CC(C)C[C@H](NC(=O)CNC(=O)c1cc(Cl)ccc1Cl)B1OC2CC3C(=O)NC(=O)C3CC2(C)O1 (some centres not stated) |  |  | 8.7 |  |  |  | 9.8 |  |  |  |  |  | 
CC(C)C[C@H](NC(=O)C(NC(=O)c1cc(C(F)(F)F)ccc1C(F)(F)F)C1CCCC1)B1OC2C3OC(CC3C(=O)O)C2(C)O1 (some centres not stated) |  |  | 13.6 |  |  |  | 2.4 |  |  |  |  |  | 
CC(C)C[C@H](NC(=O)C(CC1CC1)NC(=O)c1cc(C(F)(F)F)ccc1C(F)(F)F)B(O)O (some centres not stated) |  |  | 4.9 |  |  |  | 5 |  |  |  |  |  | 
CC(C)C[C@H](NC(=O)C(NC(=O)c1cc(C(F)(F)F)ccc1C(F)(F)F)C1CCCC1)B(O)O (some centres not stated) |  |  | 6.9 |  |  |  | 6 |  |  |  |  |  | 
CC(C)C[C@H](NC(=O)CNC(=O)c1cc(Br)ccc1Br)B(O)O |  |  | 14.7 |  |  |  | 4 |  |  |  |  |  | 
CC(C)C[C@H](NC(=O)CNC(=O)c1cc(Cl)ccc1Cl)B1OC2(C)CC3C(=O)NC(=O)C3CC2(C)O1 (some centres not stated) | 38.47 | 7.27 | 7.5 | 7.58 | 51.59 | 6.91 | 8.4 | 41.57 | 5.4 | 9.23 | 53.28 | 53.78 | 
CC(C)C[C@H](NC(=O)CNC(=O)c1cc(F)ccc1F)B(O)O |  |  | 41.5 |  |  |  | 20.6 |  |  |  |  |  | 
CC(C)C[C@H](NC(=O)CNC(=O)c1cc(Cl)ccc1Cl)B1OC2(C)CCC(C(=O)O)CC2(C)O1 (some centres not stated) | 96.98 | 78.7 | 5.3 | 83.7 | 98.08 | 85.7 | 9.6 | 98.81 | 90.1 | 91.5 | 62.06 | 97.62 | 
CC(C)C[C@H](NC(=O)CNC(=O)c1cc(C(F)(F)F)ccc1C(F)(F)F)B(O)O |  |  | 18.4 |  |  |  | 5.2 |  |  |  |  |  | 
COc1ccc(OC)c(C(=O)NCC(=O)N[C@@H](CC(C)C)B(O)O)c1 |  |  | 57.9 |  |  |  | 15.8 |  |  |  |  |  | 
CC(C)C[C@H](NC(=O)CNC(=O)c1cc(Cl)ccc1Cl)B1OC2C3OC(c4ccccc43)C2O1 (some centres not stated) | 48.53 | 1.33 | 6.9 | 1.79 | 35.35 | 1.35 | 7.7 | 52.71 | 1.9 | 1.18 | 19.33 | 50.68 | 
Cc1cc(C(=O)NCC(=O)N[C@@H](CC(C)C)B(O)O)no1 |  |  |  |  |  |  | 124 |  |  |  |  |  | 
CC(C)C[C@H](NC(=O)C(NC(=O)c1cc(C(F)(F)F)ccc1C(F)(F)F)C1CC1)B(O)O (some centres not stated) |  |  | 6.7 |  |  |  | 5.6 |  |  |  |  |  | 
CC(C)C[C@H](NC(=O)C1(NC(=O)c2cc(C(F)(F)F)ccc2C(F)(F)F)CC1)B(O)O |  |  |  |  |  |  | 86.7 |  |  |  |  |  | 
CC(C)C[C@H](NC(=O)C1(NC(=O)c2cc(C(F)(F)F)ccc2C(F)(F)F)CCCC1)B(O)O |  |  |  |  |  |  | 285 |  |  |  |  |  | 
CC(C)C[C@H](NC(=O)CNC(=O)c1cc(Cl)ccc1Cl)B1OC2C3CC(C(=O)O)C(O3)C2O1 (some centres not stated) | 83.15 | 19.9 | 4.4 | 23.9 | 83.62 | 19.6 | 6.3 | 78.47 | 21 | 19.8 | 14.06 | 82.49 | 
CC(C)C[C@H](NC(=O)CNC(=O)c1cc(Cl)ccc1Cl)B1OC2C3OC(CC3C(=O)O)C2(C)O1 (some centres not stated) | 58.21 | 14.2 | 5 | 12.9 | 60.84 | 12.5 | 5.2 | 58.58 | 7.36 | 12.4 | 6.7 | 61.18 | 
CC(C)C[C@H](NC(=O)C(NC(=O)c1cc(C(F)(F)F)ccc1C(F)(F)F)C1CC1)B1OC2C3OC(CC3C(=O)O)C2(C)O1 (some centres not stated) | 58.73 | 5.76 | 2.9 | 2.82 | 56.83 | 3.93 | 2.7 | 58.67 | 2.35 | 2.68 | 5.35 | 57.32 | half-life at 1 µM [11]: 36.7 min; bioavailability [12]: 9.8%; microsomal CLint at 1 µM [13]: 35.6 µL/min/mg; AUC(0-t) at 24 h [14]: 0.323 µg·h/mL; half-life [15]: 1450 min; half-life at 1 µM [16]: 38.9 min; Cmax [17]: 0.0465 µg/mL; half-life at 1 µM [18]: 66.6 min; half-life [19]: 718 min; microsomal CLint at 1 µM [20]: 55.6 µL/min/mg; half-life at 1 µM [21]: 84.5 min; microsomal CLint at 1 µM [22]: 16.4 µL/min/mg; Tmax [23]: 10.2 min; half-life at 1 µM [24]: 24.9 min; microsomal CLint at 1 µM [25]: 20.8 µL/min/mg; AUC(0-t) at 24 h [26]: 0.126 µg·h/mL; microsomal CLint at 1 µM [27]: 37.8 µL/min/mg

Reference: ChEMBL document CHEMBL5385891, “Design and discovery of novel dipeptide boronic acid ester proteasome inhibitors, an oral slowly-released prodrug for the treatment of multiple myeloma” (Eur J Med Chem, 2023)
